Patent US20180340225A1 (SHANGHAI INSTITUTE FOR ENDOCRINE AND METABOLIC DISEASES, priority 2015, published 2018)

System: patients with Type 2 diabetes
Experiment: Clinical efficacy indexes before and after 3 months of Acarbose treatment in naïve patients with Type 2 diabetes, by enterotype
Format: in vivo, human
Details: Bacterioide enterotype, After treatment
Description: For naïve patients with Type 2 diabetes, their liver and kidney functions, blood glucose and lipid levels, intestinal hormones, inflammatory factors, and cardiovascular risk-related factors are evaluated before medication. Their stool, urine, and blood samples are retained. […] The patients' blood glucose levels are followed up every month within 3 months, and the medication is adjusted according to the blood glucose level. Three months later, the pre-medication assessment is repeated, and the urine, stool and blood samples are retained.
a) A randomized, opened, positive control method is adopted to collect the naïve patients with Type 2 diabetes and normal controls of their spouses. […] The newly diagnosed patients of Type 2 diabetes without medication receive routine examinations, including the retention of stool and blood samples.
i. Draw venous blood 15 ml under fasting condition, of which, 1.5 ml is used for detection of plasma glucose, 6.5 ml is added to ordinary tubes (including aprotinin, DPPV inhibitor), and 6.5 ml is added to anticoagulant tubes (including heparin and RNA later)
ii. Centrifuge the blood in ordinary tube at 4° C., when serum is separated out, draw about 3 ml, and divide to three 1.5 ml Eppendorf on average, then tighten the tube caps;
iii. Centrifuge the anticoagulation blood immediately at 4° C., to separate out about 3 ml of plasma, then divide to three 1.5 ml imported RNAase free Eppendorf tubes on average, […]

## C[C@H]1O[C@H](O[C@H]2[C@H](O)[C@@H](O)[C@@H](O[C@H]3[C@H](O)[C@@H](O)C(O)O[C@@H]3CO)O[C@@H]2CO)[C@H](O)[C@@H](O)[C@@H]1N[C@H]1C=C(CO)[C@@H](O)[C@H](O)[C@H]1O (stereo partly shown) [Acarbose]
  AKP Mean: 59.23
  ALB Mean: 42.26
  ALT Mean: 29.43
  APOA Mean: 1.2475
  APOB Mean: 0.9636
  AST Mean: 22.46
  Adipisin Mean: 3174901.441
  Adpn Mean: 5157339.824
  BMI Mean: 25.51
  BW Mean: 71.91
  CP0 Mean: 2.216
  CP30 Mean: 2.7525
  CP60 Mean: 3.71
  CP120 Mean: 5.204
  CP180 Mean: 4.843
  DBIL Mean: 2.966
  DBP Mean: 75.37
  ENDOM Mean: 13.44
  Endothelin Mean: 4.159
  FABP3 Mean: 2351
  FABP4 Mean: 11504.54286
  FGF1M Mean: 22.57
  FGF2M Mean: 12.69
  FGF19M Mean: 19.74
  FGF23M Mean: 37.07
  G30 Mean: 7.623
  G60 Mean: 9.074
  G120 Mean: 9.171
  G180 Mean: 7.941
  GIP0 Mean: 80.26
  GIP30 Mean: 219.1
  GIP60 Mean: 258.945
  GIP120 Mean: 264
  GIP180 Mean: 201.6
  GMCSFM Mean: 64.62
  GO Mean: 6.607
  HB Mean: 140.6
  HBA1C Mean: 6.425
  HDL Mean: 2.989
  HGF Mean: 434.2
  HIP Mean: 98.83
  HOMA.IR Mean: 2.487
  IFNr1 Mean: 42.1
  IL1B Mean: 0.5324
  IL1bM Mean: 14.66
  IL2M Mean: 53.46
  IL4M Mean: 30.73
  IL5M Mean: 38.44
  IL6M Mean: 55.85
  IL6 Mean: 4.846
  IL8 Mean: 11.92
  IL9M Mean: 84.63
  IL10 Mean: 2.301
  IL12 Mean: 10.12
  IL13 Mean: 311.7
  IL15M Mean: 333.3
  IL17AM Mean: 33.74
  IL17EM Mean: 22.24
  IL17FM Mean: 181.4
  IL21 Mean: 29.13
  IL22M Mean: 42.5
  IL23M Mean: 39.35
  IL27 Mean: 61.28
  IL28a Mean: 20.04
  IL31M Mean: 113
  IL33M Mean: 42.13
  INS0 Mean: 8.284
  INS30 Mean: 14.5
  INS60 Mean: 23.7
  INS120 Mean: 30.33
  INS180 Mean: 22.83
  K Mean: 7.893
  LBP Mean: 17.36
  LDL Mean: 1.242
  LEPTIN Mean: 6481
  LPA Mean: 32.841
  Lymph Mean: 28.87
  MCP1 Mean: 256.6
  MIP3A Mean: 43.77
  NEU Mean: 58.47
  NGAL Mean: 125535.0294
  NGF Mean: 1.865
  Na Mean: 136.9
  PAI1 Mean: 52769.94118
  PDGFAA Mean: 4702
  PDGFAABB Mean: 24130.63636
  PP0 Mean: 80.32
  PP30 Mean: 331.7
  PP60 Mean: 330.8
  PP120 Mean: 258.8
  PP180 Mean: 174
  RANTES Mean: 50811.91176
  RBC Mean: 4.832
  RCv Mean: 2.58
  SBP Mean: 120.9
  TBIL Mean: 16.36
  TC Mean: 4.736
  TG Mean: 1.525
  TNFBM Mean: 38.44
  TNFa Mean: 4.773
  TPRO Mean: 70.11
  Trophonin M Mean: 16.15
  WAIST Mean: 88.45
  WBC Mean: 6.913
  WHR Mean: 0.8956
  bun Mean: 329.2
  creatine Mean: 67.61
  crp Mean: 29.96
  egf Mean: 183.4
  fetuinA Mean: 400.9
  fgf1 Mean: 11.66
  fgf2 Mean: 35.4
  fgf21M Mean: 100.1
  fgf21 Mean: 0.37
  monocyte Mean: 5.481
  mpo Mean: 275.8
  oscatinM Mean: 86.94
  pCP0 Mean: 1099
  pCP30 Mean: 1394
  pCP60 Mean: 1891
  pCP120 Mean: 2787
  pCP180 Mean: 2452
  pGLP10 Mean: 4.564
  pGLP130 Mean: 12.21
  pGLP160 Mean: 13.2
  pGLP1120 Mean: 10.47
  pGLP1180 Mean: 7.518
  pHOMA.IR Mean: 2.565
  pgh0 Mean: 55.75
  pgh30 Mean: 70.15
  pgh60 Mean: 66.51
  pgh120 Mean: 58.56
  pgh0180 Mean: 60.3
  pgluc0 Mean: 37.3
  pgluc30 Mean: 43.28
  pgluc60 Mean: 43.96
  pgluc120 Mean: 35.95
  pgluc180 Mean: 32.29
  pins0 Mean: 391
  pins30 Mean: 561.8
  pins60 Mean: 892.8875
  pins120 Mean: 1169
  pins180 Mean: 916.7
  platelet Mean: 214
  ppyy0 Mean: 49.602
  ppyy30 Mean: 55.74
  ppyy60 Mean: 59.37
  ppyy120 Mean: 54.45
  ppyy180 Mean: 56.15
  rGT Mean: 24.82
  resistin Mean: 14639.64706
  sicam1 Mean: 112.3
  svcam1 Mean: 484.8
  urea Mean: 4.731
  vegfa Mean: 475.2
  vegfc Mean: 106.3
  vegfd Mean: 145.4
